According to PubChem BioAssay AID1259407 (Chemical Carcinogenesis Research Information System (CCRIS), 2018):
The source made the active and inactive calls. The rule behind the calls is not given here.

Test system: CCRIS mutagenicity, Ames/micronucleus/aberration tests
Assay: CCRIS mutagenicity studies
[1] = Test System: AMES SALMONELLA TYPHIMURIUM, Strain/Indicator: TA98, Metabolic Activation: NONE, Method: STANDARD PLATE
[2] = Test System: AMES SALMONELLA TYPHIMURIUM, Strain/Indicator: TA100, Metabolic Activation: NONE, Method: PREINCUBATION
[3] = Test System: AMES SALMONELLA TYPHIMURIUM, Strain/Indicator: TA100, Metabolic Activation: NONE, Method: STANDARD PLATE

O=c1oc2ccc([N+](=O)[O-])cc2c2ccccc12
mutagenic call (Test System: AMES SALMONELLA TYPHIMURIUM, Strain/Indicator: TA98(1,8-DNP6), Metabolic Activation: NONE, Method: MICROSUSPENSION): active; positive | mutagenic call (Test System: AMES SALMONELLA TYPHIMURIUM, Strain/Indicator: TA98(1,8-DNP6), Metabolic Activation: NONE, Method: PREINCUBATION): active; positive | mutagenic call (Test System: AMES SALMONELLA TYPHIMURIUM, Strain/Indicator: TA98(1,8-DNP6), Metabolic Activation: NONE, Method: STANDARD PLATE): active; positive | mutagenic call (Test System: AMES SALMONELLA TYPHIMURIUM, Strain/Indicator: TA98(NR), Metabolic Activation: NONE, Method: MICROSUSPENSION): active; positive | mutagenic call (Test System: AMES SALMONELLA TYPHIMURIUM, Strain/Indicator: TA98(NR), Metabolic Activation: NONE, Method: PREINCUBATION): inactive; negative | mutagenic call (Test System: AMES SALMONELLA TYPHIMURIUM, Strain/Indicator: TA98(NR), Metabolic Activation: NONE, Method: STANDARD PLATE): active; positive | mutagenic call (Test System: AMES SALMONELLA TYPHIMURIUM, Strain/Indicator: TA98(NR), Metabolic Activation: RAT LIVER S-9 (15%), Method: PREINCUBATION): active; positive | mutagenic call (Test System: AMES SALMONELLA TYPHIMURIUM, Strain/Indicator: TA98(NR), Metabolic Activation: RAT LIVER S-9, 3-METHYLCHOLANTHRENE (15%), Method: PREINCUBATION): active; positive | mutagenic call (Test System: AMES SALMONELLA TYPHIMURIUM, Strain/Indicator: TA98(NR), Metabolic Activation: RAT LIVER S-9, BETA-NAPHTHAFLAVONE (15%), Method: PREINCUBATION): active; positive | mutagenic call (Test System: AMES SALMONELLA TYPHIMURIUM, Strain/Indicator: TA98(NR), Metabolic Activation: RAT LIVER S-9, PCB (10%), Method: PREINCUBATION): active; positive | mutagenic call (Test System: AMES SALMONELLA TYPHIMURIUM, Strain/Indicator: TA98(NR), Metabolic Activation: RAT LIVER S-9, PHENOBARBITAL (15%), Method: PREINCUBATION): active; positive | mutagenic call (Test System: AMES SALMONELLA TYPHIMURIUM, Strain/Indicator: TA98(NR), Metabolic Activation: RAT, LIVER, S-9, AROCLOR 1254, Method: STANDARD PLATE): active; positive | mutagenic call (Test System: AMES SALMONELLA TYPHIMURIUM, Strain/Indicator: TA98, Metabolic Activation: NONE, Method: MICROSUSPENSION): active; positive | mutagenic call (Test System: AMES SALMONELLA TYPHIMURIUM, Strain/Indicator: TA98, Metabolic Activation: NONE, Method: PREINCUBATION): active; positive | mutagenic call [1]: active; positive | mutagenic call (Test System: AMES SALMONELLA TYPHIMURIUM, Strain/Indicator: TA98, Metabolic Activation: RAT, LIVER, S-9, AROCLOR 1254, Method: MICROSUSPENSION): active; positive | mutagenic call (Test System: AMES SALMONELLA TYPHIMURIUM, Strain/Indicator: TA98, Metabolic Activation: RAT, LIVER, S-9, AROCLOR 1254, Method: STANDARD PLATE): active; positive | mutagenic call (Test System: AMES SALMONELLA TYPHIMURIUM, Strain/Indicator: TA100, Metabolic Activation: NONE, Method: MICROSUSPENSION): active; positive | mutagenic call [2]: active; positive | mutagenic call [3]: active; positive | mutagenic call (Test System: AMES SALMONELLA TYPHIMURIUM, Strain/Indicator: TA100, Metabolic Activation: RAT LIVER S-9, 3-METHYLCHOLANTHRENE (15%), Method: PREINCUBATION): active; positive | mutagenic call (Test System: AMES SALMONELLA TYPHIMURIUM, Strain/Indicator: TA100, Metabolic Activation: RAT, LIVER, S-9, AROCLOR 1254, Method: MICROSUSPENSION): active; positive | mutagenic call (Test System: AMES SALMONELLA TYPHIMURIUM, Strain/Indicator: TA100, Metabolic Activation: RAT, LIVER, S-9, AROCLOR 1254, Method: STANDARD PLATE): active; positive | mutagenic call (Test System: AMES SALMONELLA TYPHIMURIUM, Strain/Indicator: TA1535, Metabolic Activation: NONE, Method: STANDARD PLATE): active; positive | mutagenic call (Test System: AMES SALMONELLA TYPHIMURIUM, Strain/Indicator: TA1535, Metabolic Activation: RAT, LIVER, S-9, AROCLOR 1254, Method: STANDARD PLATE): active; positive | mutagenic call (Test System: AMES SALMONELLA TYPHIMURIUM, Strain/Indicator: TA1537, Metabolic Activation: NONE, Method: STANDARD PLATE): active; positive | mutagenic call (Test System: AMES SALMONELLA TYPHIMURIUM, Strain/Indicator: TA1537, Metabolic Activation: RAT, LIVER, S-9, AROCLOR 1254, Method: STANDARD PLATE): active; positive | mutagenic call (Test System: AMES SALMONELLA TYPHIMURIUM, Strain/Indicator: TA1538, Metabolic Activation: NONE, Method: STANDARD PLATE): active; positive | mutagenic call (Test System: AMES SALMONELLA TYPHIMURIUM, Strain/Indicator: TA1538, Metabolic Activation: RAT, LIVER, S-9, AROCLOR 1254, Method: STANDARD PLATE): active; positive | mutagenic call (Test System: AMES SALMONELLA TYPHIMURIUM, Strain/Indicator: TA7001, Metabolic Activation: NONE, Method: PREINCUBATION): inactive; negative | mutagenic call (Test System: AMES SALMONELLA TYPHIMURIUM, Strain/Indicator: TA7001, Metabolic Activation: RAT LIVER S-9, 3-METHYLCHOLANTHRENE (15%), Method: PREINCUBATION): inactive; negative | mutagenic call (Test System: AMES SALMONELLA TYPHIMURIUM, Strain/Indicator: TA7002, Metabolic Activation: RAT LIVER S-9, 3-METHYLCHOLANTHRENE (15%), Method: PREINCUBATION): active; positive | mutagenic call (Test System: AMES SALMONELLA TYPHIMURIUM, Strain/Indicator: TA7003, Metabolic Activation: NONE, Method: PREINCUBATION): inactive; negative | mutagenic call (Test System: AMES SALMONELLA TYPHIMURIUM, Strain/Indicator: TA7003, Metabolic Activation: RAT LIVER S-9, 3-METHYLCHOLANTHRENE (15%), Method: PREINCUBATION): inactive; negative | mutagenic call (Test System: AMES SALMONELLA TYPHIMURIUM, Strain/Indicator: TA7004, Metabolic Activation: RAT LIVER S-9, 3-METHYLCHOLANTHRENE (15%), Method: PREINCUBATION): active; positive | mutagenic call (Test System: AMES SALMONELLA TYPHIMURIUM, Strain/Indicator: TA7005, Metabolic Activation: RAT LIVER S-9, 3-METHYLCHOLANTHRENE (15%), Method: PREINCUBATION): active; positive | mutagenic call (Test System: AMES SALMONELLA TYPHIMURIUM, Strain/Indicator: TA7006, Metabolic Activation: NONE, Method: PREINCUBATION): inactive; negative | mutagenic call (Test System: AMES SALMONELLA TYPHIMURIUM, Strain/Indicator: TA7006, Metabolic Activation: RAT LIVER S-9, 3-METHYLCHOLANTHRENE (15%), Method: PREINCUBATION): active; positive

Nc1ccc(N=Nc2ccccc2)c(N)n1
mutagenic call (End Point: IN VITRO CHROMOSOMAL ABERRATIONS, Test System: CHINESE HAMSTER OVARY CELLS, Metabolic Activation: NONE): active; positive (ploidy changes) | mutagenic call (End Point: IN VITRO CHROMOSOMAL ABERRATIONS, Test System: CHINESE HAMSTER OVARY CELLS, Metabolic Activation: RAT, LIVER, S-9, AROCLOR 1254): active; positive; authors reported that all doses were toxic, but were scored because of | mutagenic call (Test System: MOUSE LYMPHOMA, Strain/Indicator: L5178Y (TK+/TK-), Metabolic Activation: NONE, Method: SUSPENSION/PLATE): inactive; negative | mutagenic call (Test System: MOUSE LYMPHOMA, Strain/Indicator: L5178Y (TK+/TK-), Metabolic Activation: RAT, LIVER, S-9, AROCLOR 1254, Method: SUSPENSION/PLATE): active; positive | mutagenic call (Test System: UDS RAT HEPATOCYTES, Strain/Indicator: BROMODEOXYURIDINE INCORP, Metabolic Activation: NONE, Method: FLOW CYTOMETRIC ANALYSIS): active; positive | mutagenic call (Test System: UDS RAT HEPATOCYTES, Strain/Indicator: THY INCORP, Metabolic Activation: NONE, Method: AUTORADIOGRAPHY): active; positive

C=C1[C@@H]2CC[C@H]3[C@]4(C)CCC[C@@](C)(C(=O)O)[C@H]4CC[C@]3(C2)[C@H]1O
mutagenic call (Test System: AMES SALMONELLA TYPHIMURIUM, Strain/Indicator: TM677, Metabolic Activation: RAT, LIVER, S-9, AROCLOR 1254, Method: PREINCUBATION): inactive; negative

CCCCCC(=O)N=c1sn(C(=O)CCCCC)c2ccc([N+](=O)[O-])cc12
mutagenic call (Test System: AMES SALMONELLA TYPHIMURIUM, Strain/Indicator: TA100, Metabolic Activation: S-9, Method: STANDARD PLATE): active; positive

COC(=O)c1c2c(c3ccccc3c1O)OC(C)(C)C=C2
mutagenic call [2]: active; positive | mutagenic call (Test System: AMES SALMONELLA TYPHIMURIUM, Strain/Indicator: TA100, Metabolic Activation: RAT, LIVER, S-9, PCB, Method: PREINCUBATION): active; positive

c1cc(-c2cc3ccc(C4=NCCN4)cc3[nH]2)ccc1C1=NCCN1
mutagenic call [1]: inactive; negative | mutagenic call (Test System: AMES SALMONELLA TYPHIMURIUM, Strain/Indicator: TA98, Metabolic Activation: RAT, LIVER, S-9, PHENOBARBITAL, Method: STANDARD PLATE): inactive; negative | mutagenic call [3]: inactive; negative | mutagenic call (Test System: AMES SALMONELLA TYPHIMURIUM, Strain/Indicator: TA100, Metabolic Activation: RAT, LIVER, S-9, PHENOBARBITAL, Method: STANDARD PLATE): inactive; negative
